# Species on record: Rattus norvegicus
# Assay: Open TG-GATES - Regimen: Single
# Type: toxicity, organism-based, Sprague-Dawley
# Design: regimen Single, gender Male, age 6 weeks
# Conditions: in vivo, iv, 0 mg/kg, route intravenous injection, dose level Control; for APTT / Bas / Eos / Fbg / Hb / Ht / Lym / MCH / MCHC / MCV / Mono / Neu / PT / Plat / RBC / Ret / WBC: tissue Blood; for KIDNEY_L / KIDNEY_R / KIDNEY_TOTAL: tissue Kidney; for LIVER: tissue Liver; for A/G / ALP / ALT / AST / BUN / CRE / Ca / Cl / DBIL / GLC / IP / K / LDH / Na / PL / RALB / TBIL / TC / TG / TP / gamma-GTP: tissue Plasma
structure (smiles),measurement,setting,value
NCCBr [BROMOETHANAMINE],TERMINAL_BW,3 h,221.8 g
same,APTT,3 h,22.1 s
same,Bas,3 h,0%
same,Eos,3 h,0.6%
same,Fbg,3 h,305.4 mg/dL
same,Hb,3 h,13.4 g/dL
same,Ht,3 h,39.5%
same,Lym,3 h,82.4%
same,MCH,3 h,22.5 pg
same,MCHC,3 h,33.9%
same,MCV,3 h,66.4 fL
same,Mono,3 h,2.2%
same,Neu,3 h,14.2%
same,PT,3 h,16.2 s
same,Plat,3 h,118.2 x10_4/uL
same,RBC,3 h,594.4 x10_4/ul
same,Ret,3 h,6.3%
same,WBC,3 h,94.3 x10_2/uL
same,KIDNEY_L,3 h,1 g
same,KIDNEY_R,3 h,1 g
same,KIDNEY_TOTAL,3 h,2 g
same,LIVER,3 h,10.5 g
same,A/G,3 h,1.2
same,ALP,3 h,1743.8 IU/L
same,ALT,3 h,43.2 IU/L
same,AST,3 h,76.2 IU/L
same,BUN,3 h,13.2 mg/dL
same,CRE,3 h,0.1 mg/dL
same,Ca,3 h,10.8 mg/dL
same,Cl,3 h,105.4 meq/L
same,DBIL,3 h,0 mg/dL
same,GLC,3 h,188.4 mg/dL
same,IP,3 h,7.5 mg/dL
same,K,3 h,4.1 meq/L
same,LDH,3 h,174.6 IU/L
same,Na,3 h,142.2 meq/L
same,PL,3 h,131.8 mg/dL
same,RALB,3 h,3 g/dL
same,TBIL,3 h,0.018 mg/dL
same,TC,3 h,70.2 mg/dL
same,TG,3 h,79.8 mg/dL
same,TP,3 h,5.4 g/dL
same,gamma-GTP,3 h,1.6 IU/L
same,TERMINAL_BW,6 h,213.6 g
same,APTT,6 h,23.7 s
same,Bas,6 h,0%
same,Eos,6 h,0.8%
same,Fbg,6 h,313.6 mg/dL
same,Hb,6 h,13.5 g/dL
same,Ht,6 h,39.2%
same,Lym,6 h,80%
same,MCH,6 h,21.6 pg
same,MCHC,6 h,34.4%
same,MCV,6 h,62.7 fL
same,Mono,6 h,3%
same,Neu,6 h,15.8%
same,PT,6 h,15.8 s
same,Plat,6 h,121.6 x10_4/uL
same,RBC,6 h,624.8 x10_4/ul
same,Ret,6 h,6.1%
same,WBC,6 h,83.9 x10_2/uL
same,KIDNEY_L,6 h,0.9 g
same,KIDNEY_R,6 h,1 g
same,KIDNEY_TOTAL,6 h,1.9 g
same,LIVER,6 h,9.2 g
same,A/G,6 h,1.1
same,ALP,6 h,1411.4 IU/L
same,ALT,6 h,39 IU/L
same,AST,6 h,71.2 IU/L
same,BUN,6 h,11 mg/dL
same,CRE,6 h,0.1 mg/dL
same,Ca,6 h,10.3 mg/dL
same,Cl,6 h,104.6 meq/L
same,DBIL,6 h,0 mg/dL
same,GLC,6 h,195.8 mg/dL
same,IP,6 h,9.7 mg/dL
same,K,6 h,4.1 meq/L
same,LDH,6 h,189.6 IU/L
same,Na,6 h,141 meq/L
same,PL,6 h,145.2 mg/dL
same,RALB,6 h,2.9 g/dL
same,TBIL,6 h,0.014 mg/dL
same,TC,6 h,87.2 mg/dL
same,TG,6 h,47.8 mg/dL
same,TP,6 h,5.4 g/dL
same,gamma-GTP,6 h,1.6 IU/L
